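Growth conditions: 96-well plates. Treatment: test compound, 48 hours, 5 concentrations. Analysis: linear interpolation between bracketing concentrations; unreached endpoints set to highest concentration. TGI marks complete inhibition of growth.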
Assays:
Assay in all cases: NCI tumour cell line growth inhibition, 48 h
OVCAR-8 ovarian = tested on: OVCAR-8 ovarian
CCRF-CEM leukemia = tested on: CCRF-CEM leukemia
K-562 leukemia = tested on: K-562 leukemia
SF-295 CNS = tested on: SF-295 CNS
SK-OV-3 ovarian = tested on: SK-OV-3 ovarian
TK-10 renal = tested on: TK-10 renal
HL-60(TB) leukemia = tested on: HL-60(TB) leukemia
OVCAR-4 ovarian = tested on: OVCAR-4 ovarian
SF-268 CNS = tested on: SF-268 CNS
HCT-15 colon = tested on: HCT-15 colon
HOP-92 NSCLC = tested on: HOP-92 NSCLC
NCI-H23 lung = tested on: NCI-H23 lung
M14 melanoma = tested on: M14 melanoma
SNB-75 CNS = tested on: SNB-75 CNS
NCI-H522 lung = tested on: NCI-H522 lung
MOLT-4 leukemia = tested on: MOLT-4 leukemia
T-47D breast = tested on: T-47D breast
HS 578T breast = tested on: HS 578T breast
SK-MEL-28 melanoma = tested on: SK-MEL-28 melanoma
KM12 colon = tested on: KM12 colon
MDA-N = tested on: MDA-N
OVCAR-3 ovarian = tested on: OVCAR-3 ovarian
MDA-MB-435 = tested on: MDA-MB-435
HOP-62 NSCLC = tested on: HOP-62 NSCLC
NCI-H460 lung = tested on: NCI-H460 lung
PC-3 prostate = tested on: PC-3 prostate
UO-31 renal = tested on: UO-31 renal
SK-MEL-5 melanoma = tested on: SK-MEL-5 melanoma
IGROV1 ovarian = tested on: IGROV1 ovarian
HCT-116 colon = tested on: HCT-116 colon
SK-MEL-2 melanoma = tested on: SK-MEL-2 melanoma
UACC-62 melanoma = tested on: UACC-62 melanoma
UACC-257 melanoma = tested on: UACC-257 melanoma
COLO 205 colon = tested on: COLO 205 colon
786-0 renal = tested on: 786-0 renal
SW-620 colon = tested on: SW-620 colon
RPMI-8226 leukemia = tested on: RPMI-8226 leukemia
SR leukemia = tested on: SR leukemia
SNB-19 CNS = tested on: SNB-19 CNS
DU-145 prostate = tested on: DU-145 prostate
LOX IMVI melanoma = tested on: LOX IMVI melanoma
HCC-2998 colon = tested on: HCC-2998 colon
SN12C renal = tested on: SN12C renal
NCI-H226 lung = tested on: NCI-H226 lung
HT29 colon = tested on: HT29 colon
NCI/ADR-RES ovarian = tested on: NCI/ADR-RES ovarian
BT-549 breast = tested on: BT-549 breast
CAKI-1 renal = tested on: CAKI-1 renal
MDA-MB-231 breast = tested on: MDA-MB-231 breast
RXF 393 renal = tested on: RXF 393 renal
A549 NSCLC = tested on: A549 NSCLC
ACHN renal = tested on: ACHN renal
EKVX NSCLC = tested on: EKVX NSCLC
U251 CNS = tested on: U251 CNS
OVCAR-5 ovarian = tested on: OVCAR-5 ovarian
MCF7 breast = tested on: MCF7 breast
SF-539 CNS = tested on: SF-539 CNS
A498 renal = tested on: A498 renal
MALME-3M melanoma = tested on: MALME-3M melanoma

`CC[C@@H](/C=C\CCC1(C[C@H](O)CCC=C(C)C)OCCO1)O[Si](C(C)C)(C(C)C)C(C)C` was tested, and the TGI (OVCAR-8 ovarian) was 38 µM, the TGI (CCRF-CEM leukemia) was greater than 100 µM and the TGI (K-562 leukemia) was 60 µM. For the same compound, the TGI (SF-295 CNS) was 43.1 µM, the TGI (SK-OV-3 ovarian) was 41.8 µM and the TGI (TK-10 renal) was 39.3 µM. It also gave a TGI (HL-60(TB) leukemia) of 38.4 µM, a TGI (OVCAR-4 ovarian) greater than 100 µM and a TGI (SF-268 CNS) of 41.9 µM. It also gave a TGI (HCT-15 colon) of 42.8 µM, a TGI (HOP-92 NSCLC) of 66.8 µM and a TGI (NCI-H23 lung) of 61.8 µM. For the same compound, the TGI (M14 melanoma) was 72.7 µM, the TGI (SNB-75 CNS) was 64.9 µM and the TGI (NCI-H522 lung) was 39.2 µM. The TGI (MOLT-4 leukemia) was 45.4 µM, the TGI (T-47D breast) was 42.6 µM and the TGI (HS 578T breast) was 80.5 µM. The TGI (SK-MEL-28 melanoma) was 73.4 µM, the TGI (KM12 colon) was greater than 100 µM and the TGI (MDA-N) was greater than 100 µM. It also gave a TGI (OVCAR-3 ovarian) of 37.1 µM, a TGI (MDA-MB-435) greater than 100 µM and a TGI (HOP-62 NSCLC) greater than 100 µM. For the same compound, the TGI (NCI-H460 lung) was 53.3 µM, the TGI (PC-3 prostate) was greater than 100 µM and the TGI (UO-31 renal) was 34.3 µM. For the same compound, the TGI (SK-MEL-5 melanoma) was 37.5 µM, the TGI (IGROV1 ovarian) was 42.1 µM and the TGI (HCT-116 colon) was 38.6 µM. It also gave a TGI (SK-MEL-2 melanoma) of 30.7 µM, a TGI (UACC-62 melanoma) of 64.5 µM and a TGI (UACC-257 melanoma) of 65.2 µM. The TGI (COLO 205 colon) was 40.1 µM, the TGI (786-0 renal) was 31.4 µM and the TGI (SW-620 colon) was 73.9 µM. It also gave a TGI (RPMI-8226 leukemia) of 42.7 µM, a TGI (SR leukemia) of 51.3 µM and a TGI (SNB-19 CNS) of 33.8 µM. The TGI (DU-145 prostate) was greater than 100 µM, the TGI (LOX IMVI melanoma) was 38.8 µM and the TGI (HCC-2998 colon) was 31.9 µM. It also gave a TGI (SN12C renal) of 32.8 µM, a TGI (NCI-H226 lung) of 35.9 µM and a TGI (HT29 colon) of 65.9 µM. It also gave a TGI (NCI/ADR-RES ovarian) of 53.9 µM, a TGI (BT-549 breast) of 63.6 µM and a TGI (CAKI-1 renal) of 87.1 µM. It also gave a TGI (MDA-MB-231 breast) of 31.2 µM, a TGI (RXF 393 renal) of 33.8 µM and a TGI (A549 NSCLC) greater than 100 µM. It also gave a TGI (ACHN renal) of 33.6 µM, a TGI (EKVX NSCLC) of 60.2 µM and a TGI (U251 CNS) of 31.1 µM. It also gave a TGI (OVCAR-5 ovarian) of 38.5 µM, a TGI (MCF7 breast) of 32 µM and a TGI (SF-539 CNS) of 34.8 µM. For the same compound, the TGI (A498 renal) was 81.3 µM.
In the case of `CC[C@H]1OC([C@H](O)C/C=C\C#C[Si](C)(C)C)C/C=C\C[C@H]1O[Si](C)(C)C(C)(C)C` (some centres not stated), the TGI (OVCAR-8 ovarian) is reported as greater than 100 µM, the TGI (CCRF-CEM leukemia) is reported as greater than 100 µM and the TGI (K-562 leukemia) is reported as greater than 100 µM. It also gave a TGI (SF-295 CNS) greater than 100 µM, a TGI (SK-OV-3 ovarian) greater than 100 µM and a TGI (OVCAR-4 ovarian) greater than 100 µM. For the same compound, the TGI (SF-268 CNS) was greater than 100 µM, the TGI (HCT-15 colon) was greater than 100 µM and the TGI (NCI-H23 lung) was greater than 100 µM. It also gave a TGI (M14 melanoma) greater than 100 µM, a TGI (SNB-75 CNS) greater than 100 µM and a TGI (NCI-H522 lung) greater than 100 µM. It also gave a TGI (MOLT-4 leukemia) greater than 100 µM, a TGI (T-47D breast) greater than 100 µM and a TGI (HS 578T breast) greater than 100 µM. The TGI (SK-MEL-28 melanoma) was greater than 100 µM, the TGI (KM12 colon) was greater than 100 µM and the TGI (MDA-N) was greater than 100 µM. The TGI (OVCAR-3 ovarian) was greater than 100 µM, the TGI (MDA-MB-435) was greater than 100 µM and the TGI (HOP-62 NSCLC) was greater than 100 µM. The TGI (NCI-H460 lung) was greater than 100 µM, the TGI (PC-3 prostate) was greater than 100 µM and the TGI (UO-31 renal) was greater than 100 µM. It also gave a TGI (SK-MEL-5 melanoma) greater than 100 µM, a TGI (IGROV1 ovarian) greater than 100 µM and a TGI (HCT-116 colon) greater than 100 µM. The TGI (SK-MEL-2 melanoma) was greater than 100 µM, the TGI (UACC-62 melanoma) was greater than 100 µM and the TGI (MALME-3M melanoma) was greater than 100 µM. For the same compound, the TGI (COLO 205 colon) was greater than 100 µM, the TGI (786-0 renal) was greater than 100 µM and the TGI (SW-620 colon) was greater than 100 µM. It also gave a TGI (RPMI-8226 leukemia) greater than 100 µM, a TGI (SR leukemia) greater than 100 µM and a TGI (SNB-19 CNS) greater than 100 µM. For the same compound, the TGI (DU-145 prostate) was greater than 100 µM, the TGI (LOX IMVI melanoma) was 36.3 µM and the TGI (HCC-2998 colon) was greater than 100 µM. For the same compound, the TGI (SN12C renal) was greater than 100 µM, the TGI (NCI-H226 lung) was greater than 100 µM and the TGI (HT29 colon) was greater than 100 µM. The TGI (NCI/ADR-RES ovarian) was greater than 100 µM, the TGI (BT-549 breast) was greater than 100 µM and the TGI (CAKI-1 renal) was greater than 100 µM. It also gave a TGI (MDA-MB-231 breast) greater than 100 µM, a TGI (RXF 393 renal) greater than 100 µM and a TGI (A549 NSCLC) greater than 100 µM. It also gave a TGI (ACHN renal) greater than 100 µM, a TGI (EKVX NSCLC) greater than 100 µM and a TGI (U251 CNS) greater than 100 µM. The TGI (OVCAR-5 ovarian) was greater than 100 µM, the TGI (MCF7 breast) was greater than 100 µM and the TGI (A498 renal) was greater than 100 µM.

Reference: PubChem BioAssay (NCI)
